Measurements as given in patent US20240210412A1, “SULFONYL-TRIAZOLE COMPOUNDS USEFUL AS LIGANDS AND INHIBITORS OF PROSTAGLANDIN REDUCTASE 2” (University of Virginia Patent Foundation, priority 2021, published 2024).

Key:
Experiment in all cases: SILAC LC-MS ABPP
Format in all cases: cell-based
Conditions in all cases: 25 μM 2 h, live DM93 cells
P60900 = molecular target: T1, P60900 (Homo sapiens, UniProt P60900)
T1 construct: endogenous in cells; host or cells: DM93 cells (SILAC)
Outline: (§1)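 DM93 SILAC cells, ligand 25 μM vs DMSO, 2 h; HHS-475 100 μM, 2 h; CuAAC desthiobiotin tag; 1:1 pool; trypsin; avidin enrichment; LC-MS/MS site quantification.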

O43172 = molecular target: T2, O43172 (Homo sapiens, UniProt O43172)
T2 construct: endogenous in cells; host or cells: DM93
Outline: as §1

P13674 = molecular target: T3, P13674 (Homo sapiens, UniProt P13674)
T3 construct: endogenous in cells; host or cells: DM93 cells (SILAC)
Outline: as §1

P61289 = molecular target: T4, P61289 (Homo sapiens, UniProt P61289)
T4 construct: endogenous in cells; host or cells: DM93 cells (SILAC)
Outline: as §1

Q969T9 = molecular target: T5, Q969T9 (Homo sapiens, UniProt Q969T9)
T5 construct: endogenous in cells; host or cells: DM93 cells (SILAC), live-cell treatment
Outline: as §1

Q15293 = molecular target: T6, Q15293 (Homo sapiens, UniProt Q15293)
T6 construct: performing SuTEx compound screening directly in cells; endogenous in cells; host or cells: DM93 cells (SILAC), soluble fraction
Outline: as §1

Q9HCH5 = molecular target: T7, Q9HCH5 (Homo sapiens, UniProt Q9HCH5)
T7 construct: endogenous in cells; host or cells: DM93 cells (SILAC), treated live; soluble proteome analysed
Outline: as §1

Q96A72 = molecular target: T8, Q96A72 (Homo sapiens, UniProt Q96A72)
T8 construct: endogenous in cells; host or cells: DM93 cells (SILAC), treated live; soluble proteome analysed
Outline: as §1

Q9NV35 = molecular target: T9, Q9NV35 (Homo sapiens, UniProt Q9NV35)
T9 construct: endogenous in cells; host or cells: DM93 cells (SILAC), treated live; soluble proteome analysed
Outline: as §1

P24666 = molecular target: T10, P24666 (Homo sapiens, UniProt P24666)
T10 construct: endogenous in cells; host or cells: DM93 (SILAC)
Outline: as §1

P31948 = molecular target: T11, P31948 (Homo sapiens, UniProt P31948)
T11 construct: endogenous in cells; host or cells: DM93 (SILAC)
Outline: as §1

Q9NW64 = molecular target: T12, Q9NW64 (Homo sapiens, UniProt Q9NW64)
T12 construct: endogenous in cells; host or cells: DM93 cells (SILAC)
Outline: as §1

P20618 = molecular target: T13, P20618 (Homo sapiens, UniProt P20618)
T13 construct: endogenous in cells; host or cells: DM93 (SILAC)
Outline: as §1

O95260 = molecular target: T14, O95260 (Homo sapiens, UniProt O95260)
T14 construct: endogenous in cells; host or cells: DM93 cells (SILAC)
Outline: as §1

P05455 = molecular target: T15, P05455 (Homo sapiens, UniProt P05455)
T15 construct: endogenous in cells; host or cells: DM93 cells (SILAC)
Outline: as §1

P18669 = molecular target: T16, P18669 (Homo sapiens, UniProt P18669)
T16 construct: endogenous in cells; host or cells: DM93 (SILAC)
Outline: as §1

P09960 = molecular target: T17, P09960 (Homo sapiens, UniProt P09960)
T17 construct: endogenous in cells; host or cells: DM93 cells (SILAC)
Outline: as §1

Q9HAU0 = molecular target: T18, Q9HAU0 (Homo sapiens, UniProt Q9HAU0)
T18 construct: endogenous in cells; host or cells: DM93 cells (SILAC), treated live; soluble proteome analysed
Outline: as §1

Q6NZY4 = molecular target: T19, Q6NZY4 (Homo sapiens, UniProt Q6NZY4)
T19 construct: endogenous in cells; host or cells: DM93 cells (SILAC), live-cell treatment
Outline: as §1

T17 sequence (P09960 whole entry): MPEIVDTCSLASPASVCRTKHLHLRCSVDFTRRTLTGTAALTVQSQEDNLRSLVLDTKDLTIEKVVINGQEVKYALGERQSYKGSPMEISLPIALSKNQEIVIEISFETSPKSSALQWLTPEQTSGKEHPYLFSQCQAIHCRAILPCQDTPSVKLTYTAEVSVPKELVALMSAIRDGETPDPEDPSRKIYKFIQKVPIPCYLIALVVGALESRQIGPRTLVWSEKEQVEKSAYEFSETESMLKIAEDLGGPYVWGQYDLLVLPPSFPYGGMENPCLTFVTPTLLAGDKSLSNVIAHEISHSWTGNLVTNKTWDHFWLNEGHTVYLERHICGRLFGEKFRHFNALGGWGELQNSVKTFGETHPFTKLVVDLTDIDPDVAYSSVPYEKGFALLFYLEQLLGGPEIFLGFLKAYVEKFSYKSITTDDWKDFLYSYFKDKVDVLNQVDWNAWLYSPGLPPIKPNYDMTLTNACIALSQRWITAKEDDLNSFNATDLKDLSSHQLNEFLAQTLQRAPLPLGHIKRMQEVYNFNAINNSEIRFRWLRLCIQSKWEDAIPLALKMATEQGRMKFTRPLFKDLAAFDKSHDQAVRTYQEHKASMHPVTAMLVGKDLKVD
T2 sequence (O43172 whole entry): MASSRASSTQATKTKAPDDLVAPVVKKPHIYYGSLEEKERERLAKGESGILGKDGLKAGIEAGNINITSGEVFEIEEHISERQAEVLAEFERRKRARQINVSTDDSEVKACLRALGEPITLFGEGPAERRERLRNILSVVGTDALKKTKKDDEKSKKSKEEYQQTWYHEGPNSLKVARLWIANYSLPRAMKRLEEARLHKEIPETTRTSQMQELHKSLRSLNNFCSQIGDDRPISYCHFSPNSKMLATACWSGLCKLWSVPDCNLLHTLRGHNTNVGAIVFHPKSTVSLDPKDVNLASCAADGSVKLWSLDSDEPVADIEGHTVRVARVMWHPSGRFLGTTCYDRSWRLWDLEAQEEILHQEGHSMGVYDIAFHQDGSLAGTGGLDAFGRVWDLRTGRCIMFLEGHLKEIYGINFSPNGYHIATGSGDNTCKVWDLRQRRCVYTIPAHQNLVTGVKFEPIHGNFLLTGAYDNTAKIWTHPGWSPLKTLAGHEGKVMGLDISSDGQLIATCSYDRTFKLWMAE
T4 sequence (P61289 whole entry): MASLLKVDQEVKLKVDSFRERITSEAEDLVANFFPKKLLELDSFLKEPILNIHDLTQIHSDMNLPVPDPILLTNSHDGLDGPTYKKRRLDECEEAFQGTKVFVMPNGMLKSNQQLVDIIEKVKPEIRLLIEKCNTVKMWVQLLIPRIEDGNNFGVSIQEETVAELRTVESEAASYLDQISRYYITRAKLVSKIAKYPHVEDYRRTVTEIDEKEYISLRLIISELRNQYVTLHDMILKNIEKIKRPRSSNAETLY
T8 sequence (Q96A72 whole entry): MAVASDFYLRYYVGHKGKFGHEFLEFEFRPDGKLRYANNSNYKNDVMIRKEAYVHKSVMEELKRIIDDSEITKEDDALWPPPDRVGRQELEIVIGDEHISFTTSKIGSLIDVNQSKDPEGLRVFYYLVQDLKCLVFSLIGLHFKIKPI
T10 sequence (P24666 whole entry): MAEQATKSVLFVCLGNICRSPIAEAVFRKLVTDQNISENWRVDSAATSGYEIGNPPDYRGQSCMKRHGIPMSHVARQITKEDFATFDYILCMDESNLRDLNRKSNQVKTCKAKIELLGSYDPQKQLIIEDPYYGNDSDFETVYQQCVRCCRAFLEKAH
T3 sequence (P13674 18-534): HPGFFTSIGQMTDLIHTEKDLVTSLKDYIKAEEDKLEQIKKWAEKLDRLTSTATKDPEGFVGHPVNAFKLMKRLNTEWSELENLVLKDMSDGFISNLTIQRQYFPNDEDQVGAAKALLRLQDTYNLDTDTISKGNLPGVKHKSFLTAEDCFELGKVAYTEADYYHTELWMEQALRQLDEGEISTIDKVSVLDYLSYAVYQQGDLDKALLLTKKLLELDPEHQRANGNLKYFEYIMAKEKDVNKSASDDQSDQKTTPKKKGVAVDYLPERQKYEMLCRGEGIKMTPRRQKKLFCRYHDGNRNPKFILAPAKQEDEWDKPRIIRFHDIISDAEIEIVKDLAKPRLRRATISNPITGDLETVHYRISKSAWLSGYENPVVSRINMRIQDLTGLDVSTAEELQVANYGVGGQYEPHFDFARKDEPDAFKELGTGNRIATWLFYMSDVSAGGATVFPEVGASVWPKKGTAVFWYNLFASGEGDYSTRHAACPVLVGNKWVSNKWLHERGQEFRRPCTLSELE
T3 sequence (P07237 18-508 partner): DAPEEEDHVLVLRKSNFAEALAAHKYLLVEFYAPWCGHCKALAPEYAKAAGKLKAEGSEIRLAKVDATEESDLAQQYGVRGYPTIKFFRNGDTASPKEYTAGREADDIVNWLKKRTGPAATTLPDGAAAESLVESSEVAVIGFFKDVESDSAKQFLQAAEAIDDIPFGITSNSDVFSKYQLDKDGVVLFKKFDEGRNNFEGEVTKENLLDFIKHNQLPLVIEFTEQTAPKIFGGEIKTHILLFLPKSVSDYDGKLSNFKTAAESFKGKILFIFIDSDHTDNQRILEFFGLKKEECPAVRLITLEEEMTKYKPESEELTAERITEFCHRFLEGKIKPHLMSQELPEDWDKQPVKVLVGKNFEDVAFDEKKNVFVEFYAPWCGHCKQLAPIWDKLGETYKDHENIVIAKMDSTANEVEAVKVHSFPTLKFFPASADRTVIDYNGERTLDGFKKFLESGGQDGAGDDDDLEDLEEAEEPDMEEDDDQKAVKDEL
T14 sequence (O95260 whole entry): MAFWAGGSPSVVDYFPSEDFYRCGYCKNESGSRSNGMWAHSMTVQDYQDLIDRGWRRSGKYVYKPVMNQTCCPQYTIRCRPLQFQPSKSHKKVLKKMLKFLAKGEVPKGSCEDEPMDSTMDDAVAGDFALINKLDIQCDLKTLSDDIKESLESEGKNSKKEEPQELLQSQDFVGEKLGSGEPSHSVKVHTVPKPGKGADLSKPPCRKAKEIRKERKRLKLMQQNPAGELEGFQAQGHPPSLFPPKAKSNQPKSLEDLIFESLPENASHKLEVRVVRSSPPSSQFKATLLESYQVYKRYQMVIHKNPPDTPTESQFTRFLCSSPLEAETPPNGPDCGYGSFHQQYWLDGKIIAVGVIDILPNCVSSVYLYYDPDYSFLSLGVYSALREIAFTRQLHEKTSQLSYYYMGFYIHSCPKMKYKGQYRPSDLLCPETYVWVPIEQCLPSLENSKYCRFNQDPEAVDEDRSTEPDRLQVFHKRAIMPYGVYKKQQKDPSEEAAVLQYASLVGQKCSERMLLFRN
T9 sequence (Q9NV35 whole entry): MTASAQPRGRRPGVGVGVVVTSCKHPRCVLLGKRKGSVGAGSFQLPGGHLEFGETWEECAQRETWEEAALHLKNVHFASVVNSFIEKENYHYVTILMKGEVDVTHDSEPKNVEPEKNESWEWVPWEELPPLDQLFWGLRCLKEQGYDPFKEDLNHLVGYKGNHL
T18 sequence (Q9HAU0 whole entry): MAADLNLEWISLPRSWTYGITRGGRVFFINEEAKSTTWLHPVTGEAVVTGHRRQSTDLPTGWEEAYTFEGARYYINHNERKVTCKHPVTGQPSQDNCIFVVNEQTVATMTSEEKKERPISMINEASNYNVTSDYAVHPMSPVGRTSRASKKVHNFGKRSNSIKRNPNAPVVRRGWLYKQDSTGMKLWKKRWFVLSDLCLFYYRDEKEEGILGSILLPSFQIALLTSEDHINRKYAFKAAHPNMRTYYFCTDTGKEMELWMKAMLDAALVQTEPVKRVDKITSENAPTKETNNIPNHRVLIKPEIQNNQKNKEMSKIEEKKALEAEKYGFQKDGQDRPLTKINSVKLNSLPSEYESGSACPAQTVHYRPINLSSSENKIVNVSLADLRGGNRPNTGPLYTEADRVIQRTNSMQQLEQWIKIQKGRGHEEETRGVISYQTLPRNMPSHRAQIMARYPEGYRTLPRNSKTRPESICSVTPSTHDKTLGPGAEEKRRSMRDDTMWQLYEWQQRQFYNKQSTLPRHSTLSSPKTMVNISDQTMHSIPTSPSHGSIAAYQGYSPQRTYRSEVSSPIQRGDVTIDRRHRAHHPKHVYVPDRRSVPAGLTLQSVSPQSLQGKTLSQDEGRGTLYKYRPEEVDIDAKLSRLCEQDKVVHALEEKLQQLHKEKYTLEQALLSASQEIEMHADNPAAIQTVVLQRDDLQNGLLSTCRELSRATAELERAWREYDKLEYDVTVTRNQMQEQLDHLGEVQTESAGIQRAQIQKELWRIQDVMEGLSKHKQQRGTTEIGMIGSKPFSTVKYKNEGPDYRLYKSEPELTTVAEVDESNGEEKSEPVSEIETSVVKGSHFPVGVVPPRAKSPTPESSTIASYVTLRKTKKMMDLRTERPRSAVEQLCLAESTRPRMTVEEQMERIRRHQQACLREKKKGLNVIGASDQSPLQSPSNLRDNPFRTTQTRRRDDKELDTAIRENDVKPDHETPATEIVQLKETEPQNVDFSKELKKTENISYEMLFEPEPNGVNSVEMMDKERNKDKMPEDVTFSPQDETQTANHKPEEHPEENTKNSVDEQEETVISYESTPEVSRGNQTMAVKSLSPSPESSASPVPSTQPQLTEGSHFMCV
T6 sequence (Q15293 30-331): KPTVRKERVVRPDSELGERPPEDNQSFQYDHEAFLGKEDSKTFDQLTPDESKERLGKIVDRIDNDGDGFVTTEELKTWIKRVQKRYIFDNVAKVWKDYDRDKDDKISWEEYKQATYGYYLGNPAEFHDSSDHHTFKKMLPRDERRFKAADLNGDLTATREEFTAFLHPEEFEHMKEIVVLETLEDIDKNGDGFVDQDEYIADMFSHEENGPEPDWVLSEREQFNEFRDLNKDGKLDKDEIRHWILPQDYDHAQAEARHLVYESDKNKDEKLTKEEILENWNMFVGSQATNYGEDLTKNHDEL

Question: For O=C(NC1CC1)c1ccc(S(=O)(=O)n2cncn2)cc1 [HHS-0101, 4-((1H-1,2,4-triazol-1-yl)sulfonyl)-N-cyclopropylbenzamide], which “liganded tyrosine site 103” value (P60900) is on record?
Answer: HHS0101.Y|HHS0201.Y|HHS0401.Y (tyrosine sites that showed >80% reductions (SR >5) in probe labeling in cells treated with compounds (liganded sites))

Question: What about the “liganded tyrosine site 31” value (O43172) of the same compound?
Answer: HHS0101.Y|HHS0301.Y (tyrosine sites that showed >80% reductions (SR >5) in probe labeling in cells treated with compounds (liganded sites))

Question: And the “liganded tyrosine site 32” value (O43172)?
Answer: HHS0101.Y|HHS0301.Y (tyrosine sites that showed >80% reductions (SR >5) in probe labeling in cells treated with compounds (liganded sites))

Question: What about the “liganded tyrosine site 250” value (P13674) of the same compound?
Answer: HHS0101.Y (tyrosine sites that showed >80% reductions (SR >5) in probe labeling in cells treated with compounds (liganded sites))

Question: What about the “liganded tyrosine site 196” value (P61289) of the same compound?
Answer: HHS0101.Y|HHS0201.Y|HHS0401.Y (tyrosine sites that showed >80% reductions (SR >5) in probe labeling in cells treated with compounds (liganded sites))

Question: What about the “liganded tyrosine site 232” value (Q969T9) of the same compound?
Answer: HHS0101.Y|HHS0701.Y (tyrosine sites that showed >80% reductions (SR >5) in probe labeling in cells treated with compounds (liganded sites))

Question: And the “liganded tyrosine site 320” value (Q15293)?
Answer: HHS0101.Y (tyrosine sites that showed >80% reductions (SR >5) in probe labeling in cells treated with compounds (liganded sites))

Question: What about the “liganded tyrosine site 289” value (Q9HCH5) of the same compound?
Answer: HHS0101.Y|HHS0201.Y|HHS0301.Y|HHS0401.Y|HHS0701.Y (tyrosine sites that showed >80% reductions (SR >5) in probe labeling in cells treated with compounds (liganded sites))

Question: How did the “liganded tyrosine site 36” value (Q96A72) turn out when O=C(NCC1CC1)c1ccc(S(=O)(=O)n2cncn2)cc1 [HHS-0201, 4-((1H-1,2,4-triazol-1-yl)sulfonyl)-N-(cyclopropylmethyl)benzamide] was run?
Answer: HHS0201.Y (tyrosine sites that showed >80% reductions (SR >5) in probe labeling in cells treated with compounds (liganded sites))

Question: What about the “liganded tyrosine site 92” value (Q9NV35) of the same compound?
Answer: HHS0201.Y (tyrosine sites that showed >80% reductions (SR >5) in probe labeling in cells treated with compounds (liganded sites))

Question: And the “liganded tyrosine site 88” value (P24666)?
Answer: HHS0201.Y|HHS0401.Y|HHS0701.Y (tyrosine sites that showed >80% reductions (SR >5) in probe labeling in cells treated with compounds (liganded sites))

Question: Which “liganded tyrosine site 134” value (P31948) does the source give for O=C(NC1CCCCC1)c1ccc(S(=O)(=O)n2cncn2)cc1 [HHS-0301, 4-((1H-1,2,4-triazol-1-yl)sulfonyl)-N-cyclohexylbenzamide] here?
Answer: HHS0301.Y (tyrosine sites that showed >80% reductions (SR >5) in probe labeling in cells treated with compounds (liganded sites))

Question: What about the “liganded tyrosine site 116” value (Q9NW64) of the same compound?
Answer: HHS0301.Y (tyrosine sites that showed >80% reductions (SR >5) in probe labeling in cells treated with compounds (liganded sites))

Question: What about the “liganded tyrosine site 135” value (P20618) of the same compound?
Answer: HHS0301.Y (tyrosine sites that showed >80% reductions (SR >5) in probe labeling in cells treated with compounds (liganded sites))

Question: O=C(NCc1ccccc1)c1ccc(S(=O)(=O)n2cncn2)cc1 [HHS-0401, 4-((1H-1,2,4-triazol-1-yl)sulfonyl)-N-benzylbenzamide] was tested. Which “liganded tyrosine site 63” value (O95260) did it give?
Answer: HHS0401.Y|HHS0701.Y (tyrosine sites that showed >80% reductions (SR >5) in probe labeling in cells treated with compounds (liganded sites))

Question: And the “liganded tyrosine site 188” value (P05455)?
Answer: HHS0401.Y (tyrosine sites that showed >80% reductions (SR >5) in probe labeling in cells treated with compounds (liganded sites))

Question: What about the “liganded tyrosine site 119” value (P18669) of the same compound?
Answer: HHS0401.Y (tyrosine sites that showed >80% reductions (SR >5) in probe labeling in cells treated with compounds (liganded sites))

Question: How did the “liganded tyrosine site 379” value (P09960) turn out when O=C(c1ccc(S(=O)(=O)n2cncn2)cc1)N1CCC(c2ccccc2)CC1 [HHS-0701, (4-((1H-1,2,4-triazol-1-yl)sulfonyl)phenyl)(4-phenylpiperidin-1-yl)methanone] was run?
Answer: HHS0701.Y (tyrosine sites that showed >80% reductions (SR >5) in probe labeling in cells treated with compounds (liganded sites))

Question: What about the “liganded tyrosine site 384” value (P09960) of the same compound?
Answer: HHS0701.Y (tyrosine sites that showed >80% reductions (SR >5) in probe labeling in cells treated with compounds (liganded sites))

Question: And the “liganded tyrosine site 553” value (Q9HAU0)?
Answer: HHS0701.Y (tyrosine sites that showed >80% reductions (SR >5) in probe labeling in cells treated with compounds (liganded sites))

Question: What about the “liganded tyrosine site 258” value (Q6NZY4) of the same compound?
Answer: HHS0701.Y (tyrosine sites that showed >80% reductions (SR >5) in probe labeling in cells treated with compounds (liganded sites))
